Results on three compounds are retold here after patent publication US4005146A, “Resolution of dl-allethrolone” (Roussel-UCLAF, priority 1971, dated 1977).

One series deals with house flies. In words: Lethal insecticidal activity on house flies, topical application to dorsal thorax. In kind it is in vivo. The note with it: for % Mortality / DL50: 24 hours after topical treatment, 1 μl acetone solution. Here is the method: The lethal insecticidal activity of d-allethrolone chrysanthemate (compound A) was compared with dl-allethrolone chrysanthemate (compound B) on house flies by topically applying 1 μl of an acetone solution thereof to the dorsal thorax of the insect. 50 insects were used for each dose and the number of dead was determined 24 hours after the treatment.

Series [1] relates to female german cockroaches. In words: Knock down effect on female german cockroaches by direct spraying. Type of series: in vivo. The following applies: for % KD after 5 min. / % KD after 10 min. / % KD after 15 min. / % KD after 30 min. / % KD after 60 min.: direct spraying 0.5 ml kerosene/acetone; for KD50 times more active than compound B: compound A vs compound B. Here is the method: The knock down effect of the same two compounds was determined on female german cockroaches by direct spraying as 0.5 ml of a solution in equal volumes of kerosene and acetone. 20 insects were used for each test and the knock down effect was determined at 5,10,15,30 and 60 minutes after treatment.

The conditions of series [2]: vs chrysanthemic acid ester of levo allethrolone; Elliott, J. Sci. Food Agr. 1954; cited from earlier work.
Series [3] is described as follows: Insecticidal activity of d-allethrolone d-trans chrysanthemate vs the dl-allethrolone ester (general statement). In kind it is in vivo.

With `C=CCC1=C(C)C(OC(=O)C2C(C=C(C)C)C2(C)C)CC1=O` (racemic) [B, dl-allethrolone chrysanthemate, reference compound], the “% Mortality” value stood at 16.2% in the series with house flies (50 mg/l), 33.7% in the series with house flies (100 mg/l), 49.0% in the series on house flies (200 mg/l) and 55.1% with house flies (300 mg/l). This compound came in with a DL50 with house flies of 224.3 mg/L. Besides, the “% KD after 5 min.” value is recorded as 7.5% in series [1] (250 mg/l), 30.9% in series [1] (500 mg/l) and 46.1% in series [1] (1000 mg/l). For the same compound, the “% KD after 10 min.” value in series [1] (250 mg/l) came out at 7.5%; in series [1] (500 mg/l), 50.0%; in series [1] (1000 mg/l), 64.1%. The “% KD after 15 min.” value in series [1] (250 mg/l) was 12.5%; in series [1] (500 mg/l), 54.7%; in series [1] (1000 mg/l), 74.3%. Further, the “% KD after 30 min.” value in series [1] (250 mg/l) worked out at 12.5%; in series [1] (500 mg/l), 47.6%; in series [1] (1000 mg/l) it was 79.4%. Moreover, the “% KD after 60 min.” value in series [1] (250 mg/l) is recorded as 12.5%; in series [1] (500 mg/l), 45.2%; in series [1] (1000 mg/l), 89.7%.

For `C=CCC1=C(C)[C@@H](OC(=O)C2C(C=C(C)C)C2(C)C)CC1=O` (stereo partly drawn) [A, d-allethrolone chrysanthemate], the “times more effective as an insecticide than the ester of levo allethrolone” value in series [2] is 4 times. The “% Mortality” value with house flies (25 mg/l) is recorded as 49.0%; in the series on house flies (50 mg/l) it was 45.6%; in the series on house flies (75 mg/l), 76.6%; with house flies (100 mg/l) it was 65.3%. Also, the DL50 in the series on house flies worked out at 54 mg/L. In the series with house flies (compound A vs compound B, Table II), the “times more active than compound B (lethal activity)” value is reported as 4.15 times. Also, the “% KD after 5 min.” value in series [1] (250 mg/l) is reported as 45.0%; in series [1] (500 mg/l) it was 61.9%; in series [1] (1000 mg/l), 100%. The “% KD after 10 min.” value in series [1] (250 mg/l) turned out to be 52.5%; in series [1] (500 mg/l), 71.4%; in series [1] (1000 mg/l) it was 100%. Besides, the “% KD after 15 min.” value in series [1] (250 mg/l) amounted to 65.0%; in series [1] (500 mg/l) it was 83.3%; in series [1] (1000 mg/l) it was 100%. Further, the “% KD after 30 min.” value is recorded as 62.5% in series [1] (250 mg/l), 85.7% in series [1] (500 mg/l) and 100% in series [1] (1000 mg/l). Besides, the results for the “% KD after 60 min.” value in series [1] (250 mg/l), in series [1] (500 mg/l) and in series [1] (1000 mg/l) were 65.0%, 88.0% and 100%, respectively. Besides, the “KD50 times more active than compound B” value in series [1] (5 minutes) is reported as “about 4.3 times”; in series [1] (30 minutes) it was 2.8 times.

On to `C=CCC1=C(C)[C@@H](OC(=O)[C@@H]2[C@@H](C=C(C)C)C2(C)C)CC1=O` [d-allethrolone d-trans chrysanthemate], for which, in series [3], the “insecticidal activity relative to the corresponding dl-allethrolone ester” value is listed as “much superior insecticidal activity”.
